From PMC9783898 (Pharmaceutics, 2022)
Read-outs that look alike come from different tables or passages of the source.

Legend:
PARP1 = PARP1 (Homo sapiens, UniProt P09874); experiment: PARP1 inhibition activity; type: biochemical
[1] = tested on: H9C2 (rat cardiomyocytes); experiment: Cytotoxicity assay (MTT, 48 h) on H9C2; type: cell-based; settings: read-out: H9C2, IC50
[2] = tested on: MES-SA (Human uterine sarcoma); experiment: Cytotoxicity assay (MTT, 48 h) on MES-SA; type: cell-based
Experimental: Cells were cultured in modified McCoy’s 5a medium supplemented with 10% fetal bovine serum. […] After reaching approx. 90% confluence, cells were detached using 0.05% trypsin/EDTA solution and counted. Then, cells were plated at optimal density for the logarithmic phase of growth. MES-SA cells were seeded onto 96-well plate at a concentration of 3000 cells per well. Blank control wells were left cell-free for background absorption measurement. […] Control cells were incubated with media without compounds. MTT assays were performed after 48 h incubation. Briefly, culture medium was removed from each well and replaced with fresh medium with MTT (0.2 mg/mL). […] The plate was further shaken for 15 min at room temperature, and the optical density at 540 nm of the wells was measured using multichannel spectrophotometer (Thermo Scientific Multiskan EX, Waltham, MA, USA). The percent of alive cells were calculated according to the formula 100∙T/C, where T is the optical density of a test well after 48 h exposure to compound, and C is control cells optical density after 48 h. All compounds were tested in three independent experiments. The IC50 values were calculated using Graph Pad Prism (GraphPad, Inc., La Jolla, CA, USA).

[3] = tested on: MCF-7 (human adenocarcinoma); experiment: Cytotoxicity assay (MTT, 48 h) on MCF-7; type: cell-based
[4] = tested on: HCC1937 (human breast carcinoma); experiment: Cytotoxicity assay (MTT, 48 h) on HCC1937; type: cell-based
[5] = tested on: MES-SA/Dx-5 (doxorubicin resistant human uterine sarcoma); set-up: method as in doi:10.1039/D2NJ00340F; settings: MTT, cited from earlier work
MES-SA/Dx-5 cells [6] = tested on: MES-SA/Dx-5 cells; set-up: method as in doi:10.1039/D2NJ00340F; settings: IC50 of DOX/IC50 of DOX with compound at IC20, MES-SA/Dx-5; cited from earlier work
MES-SA/Dx-5 cells [7] = experiment: Reversal of doxorubicin resistance (doxorubicin cytotoxicity in presence of compound at IC20); type: cell-based, human; settings: IC50 of DOX/IC50 of DOX with a conjugate at IC20, MES-SA/Dx-5
Experimental: To calculate reversal fold (RF) values, doxorubicin cytotoxicity was determined in the presence of the tested compounds at their corresponding IC20 concentration as described above. RF values were calculated as IC50 of DOX/IC50 of DOX in the presence of a tested compound.
Next, the cytotoxicity of 5a–c was evaluated on a doxorubicin resistant human uterus sarcoma cell line (MES-SA/Dx-5) using the MTT assay (Table 2). […] To explore the potential of the novel compounds to reverse doxorubicin resistance, cytotoxicity of doxorubicin was evaluated in the presence of 5a–c at their corresponding IC20 concentrations.

[8] = tested on: MES-SA/Dx-5 (doxorubicin resistant human uterine sarcoma); experiment: cells; settings: for IC20: MES-SA/Dx5, read-out: MES-SA/Dx5 IC20
[9] = tested on: MES-SA/Dx-5 (doxorubicin resistant human uterine sarcoma); settings: MES-SA/Dx-5 vs MES-SA
[10] = PARP1 inhibiting activity, Table 1, read-out: PARP1
[11] = Homo sapiens, MES-SA, read-out: MES-SA, IC50, MTT, 48 h
[12] = Homo sapiens, MCF7, 48 h, read-out: MCF-7, IC50, MTT, 48 h
[13] = Homo sapiens, HCC1937, 48 h, read-out: HCC1937, IC50, MTT, 48 h, BRCA1-deficient breast carcinoma
[14] = MES-SA/Dx5, read-out: MES-SA/Dx5 IC50

Sequence of PARP1 (P09874 whole entry, species assumed): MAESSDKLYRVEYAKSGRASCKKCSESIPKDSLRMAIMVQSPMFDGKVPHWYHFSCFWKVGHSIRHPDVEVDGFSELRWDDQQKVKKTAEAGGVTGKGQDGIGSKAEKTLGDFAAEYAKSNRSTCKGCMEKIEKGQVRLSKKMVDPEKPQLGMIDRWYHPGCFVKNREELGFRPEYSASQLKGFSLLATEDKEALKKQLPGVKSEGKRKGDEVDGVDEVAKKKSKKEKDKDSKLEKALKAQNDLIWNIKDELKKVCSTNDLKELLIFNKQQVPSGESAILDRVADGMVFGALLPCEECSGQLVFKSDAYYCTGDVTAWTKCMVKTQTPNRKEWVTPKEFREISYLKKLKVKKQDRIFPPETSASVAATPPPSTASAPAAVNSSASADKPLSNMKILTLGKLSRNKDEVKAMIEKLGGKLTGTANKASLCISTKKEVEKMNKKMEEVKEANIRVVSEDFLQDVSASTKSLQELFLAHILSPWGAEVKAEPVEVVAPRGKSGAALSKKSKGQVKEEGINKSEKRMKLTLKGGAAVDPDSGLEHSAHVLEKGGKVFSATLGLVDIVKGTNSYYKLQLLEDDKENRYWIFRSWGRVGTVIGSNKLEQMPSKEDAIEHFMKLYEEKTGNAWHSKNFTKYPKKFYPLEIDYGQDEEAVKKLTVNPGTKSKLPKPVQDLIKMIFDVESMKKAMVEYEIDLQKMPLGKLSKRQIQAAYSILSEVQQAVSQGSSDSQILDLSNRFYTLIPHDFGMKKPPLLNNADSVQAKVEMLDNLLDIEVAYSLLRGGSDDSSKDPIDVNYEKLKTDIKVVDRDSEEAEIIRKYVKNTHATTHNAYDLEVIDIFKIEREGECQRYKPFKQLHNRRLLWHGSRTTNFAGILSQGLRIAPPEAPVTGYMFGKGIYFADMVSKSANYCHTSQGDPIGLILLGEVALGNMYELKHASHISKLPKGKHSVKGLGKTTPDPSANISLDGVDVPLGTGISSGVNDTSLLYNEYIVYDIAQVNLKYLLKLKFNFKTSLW

SMILES | IC50 (PARP1; [10]) | IC50 ([1]; H9c2, 48 h) | IC50 [2, 11] | IC50 [3, 12] | IC50 [4, 13] | RF (reversal fold) (MES-SA/Dx-5 cells [7]) | melting point | IC20 [8] | IC50 [8, 14] | other results
Cn1c(=O)c2c(Br)c(CN3CCCNCC3)[se]c2c2ccccc21 [Compound 1] | > 1 µM | > 300 µM | 17 to 21 µM | 17 to 21 µM | 17 to 21 µM |  |  |  |  | PARP1 activity (PARP1; at 1 µM concentration): did not decrease PARP1 activity; IC50 ([2]; read-out: MES-SA, IC50, MTT): 21 ± 3.9 µM; IC50 ([3]; read-out: MCF-7, IC50, MTT, 48 h): 17.1 ± 1.9 µM; IC50 ([4]; read-out: HCC1937, IC50, MTT, 48 h, BRCA1-deficient breast carcinoma): 19.9 ± 4.8 µM; IC20 ([5]; read-out: MES-SA/Dx5 IC20): 7.96 ± 3.03 µM; IC50 ([5]; read-out: MES-SA/Dx5 IC50): 21.1 ± 2.49 µM; RF (reversal fold) (MES-SA/Dx-5 cells [6]): 4.72 ± 0.63
Cn1c(=O)c2c(Br)c(CN3CCCN(C(=O)CCC(=O)N4CCN(C(=O)c5cc(Cc6n[nH]c(=O)c7ccccc67)ccc5F)CC4)CC3)[se]c2c2ccccc21 [Compound 5a, 1-(4-((3-Bromo-5-methyl-4-oxo-4,5-dihydroselenopheno[3,2-c]quinolin-2-yl)methyl)-1,4-diazepan-1-yl)-4-(4-(2-fluoro-5-((4-oxo-3,4-dihydrophthalazin-1-yl)methyl)benzoyl)piperazin-1-yl)butane-1,4-dione] | 0.0046 ± 0.0005 µM | > 300 µM | 7.1 ± 2.7 µM | > 100 µM | 3.1 ± 1 µM | 0.84 ± 0.16 | > 200 °C | 0.48 ± 0.094 µM | 21.1 ± 3.94 µM | 
Cn1c(=O)c2c(Br)c(CN3CCCN(C(=O)CCCCCCCCC(=O)N4CCN(C(=O)c5cc(Cc6n[nH]c(=O)c7ccccc67)ccc5F)CC4)CC3)[se]c2c2ccccc21 [Compound 5b, 1-(4-((3-Bromo-5-methyl-4-oxo-4,5-dihydroselenopheno[3,2-c]quinolin-2-yl)methyl)-1,4-diazepan-1-yl)-10-(4-(2-fluoro-5-((4-oxo-3,4-dihydrophthalazin-1-yl)methyl)benzoyl)piperazin-1-yl)decane-1,10-dione] | 0.013 ± 0.0018 µM | > 300 µM | 32.5 ± 1.6 µM | > 100 µM | > 100 µM | 3.42 ± 0.12 | 172 to 174 °C | 0.86 ± 0.096 µM | 1.67 ± 0.03 µM | times more cytotoxic to MES-SA/Dx-5 than regular MES-SA cells [9]: ~20 times
Cn1c(=O)c2c(Br)c(CN3CCCN(C(=O)CCCCCCCCCCC(=O)N4CCN(C(=O)c5cc(Cc6n[nH]c(=O)c7ccccc67)ccc5F)CC4)CC3)[se]c2c2ccccc21 [Compound 5c, 1-(4-((3-Bromo-5-methyl-4-oxo-4,5-dihydroselenopheno[3,2-c]quinolin-2-yl)methyl)-1,4-diazepan-1-yl)-12-(4-(2-fluoro-5-((4-oxo-3,4-dihydrophthalazin-1-yl)methyl)benzoyl)piperazin-1-yl)dodecane-1,12-dione] | 0.147 ± 0.0022 µM | > 300 µM | > 100 µM | > 100 µM | > 100 µM | 3.36 ± 0.11 |  | 0.549 ± 0.074 µM | 26.2 ± 0.03 µM | IC50 (PARP1; read-out: PARP1 IC50): 0.147 µM
COc1cccc2c1C(=O)c1c(O)c3c(c(O)c1C2=O)C[C@@](O)(C(=O)CO)C[C@@H]3O[C@H]1C[C@H](N)[C@H](O)[C@H](C)O1 [Doxorubicin, reference compound] |  |  |  |  |  |  |  |  |  | IC50 ([1]; H9c2, MTT, 48 h): 3.9 ± 0.6 µM; IC50 ([2]; Homo sapiens, MES-SA, MTT, read-out: MES-SA, IC50): 0.084 ± 0.011 µM; IC50 ([3]; Homo sapiens, MCF7, 48 h, MTT, 48 h, read-out: MCF-7, IC50): 0.47 ± 0.14 µM; IC50 ([4]; Homo sapiens, HCC1937, 48 h, MTT, 48 h, BRCA1-deficient breast carcinoma, read-out: HCC1937, IC50): 1.08 ± 0.1 µM; IC50 ([8]; MES-SA/Dx5, read-out: Doxorubicin IC50): 2.4 ± 0.41 µM
O=C(c1cc(Cc2n[nH]c(=O)c3ccccc23)ccc1F)N1CCN(C(=O)C2CC2)CC1 [Olaparib, reference compound] |  |  |  |  |  |  |  |  | > 100 µM | IC50 ([2]; Homo sapiens, MES-SA, read-out: MES-SA, IC50): > 100 µM; IC50 ([3]; Homo sapiens, MCF7, 48 h, read-out: MCF-7, IC50): > 100 µM; IC50 ([4]; Homo sapiens, HCC1937, 48 h, read-out: HCC1937, IC50): > 100 µM
